In ChEMBL document CHEMBL5335794, “Discovery of novel multifunctional ligands targeting GABA transporters, butyrylcholinesterase, β-secretase, and amyloid β aggregation as potential treatment of Alzheimer's disease” (Eur J Med Chem, 2023):

Assays:
[1] = target: T1, Sodium- and chloride-dependent GABA transporter 1 (Mus musculus, UniProt P31648); experiment: Inhibition of mouse GAT1 transfected in HEK293 cells assessed as reduction in [3H]-GABA uptake preincubated for 25 mins followed by [3H]-GABA addition and measured after 4 mins by liquid scintillation counting analysis; format: cell-based; details: read-out: pIC50 (converted)
[2] = target: T2, GABA transporter 2 (Mus musculus, UniProt P31651); experiment: Inhibition of mouse GAT2 transfected in HEK293 cells assessed as reduction in [3H]-GABA uptake preincubated for 25 mins followed by [3H]-GABA addition and measured after 10 mins by liquid scintillation counting analysis; format: cell-based; details: read-out: pIC50 (converted)
T2 sequence (P31651 whole entry): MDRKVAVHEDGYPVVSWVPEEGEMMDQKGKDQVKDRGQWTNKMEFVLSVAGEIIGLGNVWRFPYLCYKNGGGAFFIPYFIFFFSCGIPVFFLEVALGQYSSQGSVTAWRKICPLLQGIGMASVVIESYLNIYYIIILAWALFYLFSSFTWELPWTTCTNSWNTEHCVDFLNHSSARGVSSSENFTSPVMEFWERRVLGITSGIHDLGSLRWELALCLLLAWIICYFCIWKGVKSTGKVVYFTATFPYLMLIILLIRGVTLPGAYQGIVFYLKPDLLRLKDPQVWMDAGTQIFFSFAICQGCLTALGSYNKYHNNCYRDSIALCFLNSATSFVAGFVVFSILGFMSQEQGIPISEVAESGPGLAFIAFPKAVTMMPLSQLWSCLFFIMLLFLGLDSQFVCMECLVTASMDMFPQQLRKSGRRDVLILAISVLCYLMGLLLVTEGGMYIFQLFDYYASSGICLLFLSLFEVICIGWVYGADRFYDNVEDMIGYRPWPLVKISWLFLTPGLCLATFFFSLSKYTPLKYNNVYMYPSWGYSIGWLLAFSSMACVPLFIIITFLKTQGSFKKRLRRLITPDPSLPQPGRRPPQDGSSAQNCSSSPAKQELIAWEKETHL

[3] = Inhibition of mouse GAT3 transfected in HEK293 cells assessed as reduction in [3H]-GABA uptake preincubated for 25 mins followed by [3H]-GABA addition and measured after 4 mins by liquid scintillation counting analysis; format: cell-based; details: for IC50: HEK293, read-out: pIC50 (converted)
[4] = target: T3, GABA transporter 4 (Mus musculus, UniProt P31650); experiment: Inhibition of mouse GAT4 transfected in HEK293 cells assessed as reduction in [3H]-GABA uptake preincubated for 25 mins followed by [3H]-GABA addition and measured after 4 mins by liquid scintillation counting analysis; format: cell-based; details: read-out: pIC50 (converted)
T3 sequence (P31650 whole entry): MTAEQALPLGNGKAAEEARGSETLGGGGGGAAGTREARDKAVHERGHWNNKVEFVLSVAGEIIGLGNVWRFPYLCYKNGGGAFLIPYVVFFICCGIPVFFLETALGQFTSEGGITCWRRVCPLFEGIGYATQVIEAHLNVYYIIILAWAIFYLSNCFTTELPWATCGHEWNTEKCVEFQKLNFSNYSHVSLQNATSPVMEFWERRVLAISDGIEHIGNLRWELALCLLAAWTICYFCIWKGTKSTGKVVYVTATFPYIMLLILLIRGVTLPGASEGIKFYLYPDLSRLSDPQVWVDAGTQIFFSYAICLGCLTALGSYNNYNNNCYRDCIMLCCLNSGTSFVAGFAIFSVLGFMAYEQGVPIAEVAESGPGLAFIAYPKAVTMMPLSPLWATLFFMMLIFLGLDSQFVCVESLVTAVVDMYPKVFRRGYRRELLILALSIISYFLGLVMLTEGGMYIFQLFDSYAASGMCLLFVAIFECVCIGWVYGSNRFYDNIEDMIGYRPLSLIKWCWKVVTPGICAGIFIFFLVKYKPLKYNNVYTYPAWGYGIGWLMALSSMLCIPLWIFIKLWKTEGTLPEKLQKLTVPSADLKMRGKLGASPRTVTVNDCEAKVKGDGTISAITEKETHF

[5] = target: Sodium- and chloride-dependent GABA transporter 1 (Mus musculus) (UniProt P31648); experiment: Inhibition of NO 711 marker binding to mouse GAT1 assessed as residual activity at 100 uM by LC-ESI-MS/MS based competitive MS binding assay relative to control
[6] = target: Acetylcholinesterase (Electrophorus electricus) (UniProt O42275); experiment: Inhibition of electric eel AChE using acetylthiocholine iodide as substrate at 10 uM preincubated for 5 mins followed by substrate addition and measured after 5 mins by DTNB reagent based Ellman's method relative to control; details: time 10.0 min
[7] = target: T4, Beta-secretase 1 (Homo sapiens, UniProt P56817); details: dose 50.0 µM, time 60.0 min
[8] = target: Cholinesterase (Equus caballus, UniProt P81908)
Description: Inhibition of equine serum BuChE using butyrylthiocholine iodide as substrate preincubated for 5 mins followed by substrate addition and measured after 5 mins by DTNB reagent based Ellman's method

[9] = target: T4, Beta-secretase 1
[10] = target: Amyloid-beta precursor protein (Homo sapiens) (UniProt P05067); experiment: Inhibition of amyloid beta42 (unknown origin) aggregation expressed in Escherichia coli BL21 (DE3) at 10 uM measured every 5 mins by ThT fluorescence based assay relative to control
[11] = target: Amyloid-beta precursor protein (Homo sapiens) (UniProt P05067); experiment: Inhibition of amyloid beta40 (unknown origin) aggregation at 10 uM measured every 5 mins by ThT fluorescence based assay relative to control
[12] = target: Cholinesterase (Equus caballus) (UniProt P81908); experiment: Inhibition of equine serum BuChE using butyrylthiocholine iodide as substrate at 10 uM preincubated for 5 mins followed by substrate addition and measured after 5 mins by DTNB reagent based Ellman's method relative to control; details: time 10.0 min
[13] = target: T1, Sodium- and chloride-dependent GABA transporter 1; experiment: Inhibition of NO 711 marker binding to mouse GAT1 by LC-ESI-MS/MS based competitive MS binding assay

Amyloid-beta precursor protein (Homo sapiens), sequence (P05067 whole entry): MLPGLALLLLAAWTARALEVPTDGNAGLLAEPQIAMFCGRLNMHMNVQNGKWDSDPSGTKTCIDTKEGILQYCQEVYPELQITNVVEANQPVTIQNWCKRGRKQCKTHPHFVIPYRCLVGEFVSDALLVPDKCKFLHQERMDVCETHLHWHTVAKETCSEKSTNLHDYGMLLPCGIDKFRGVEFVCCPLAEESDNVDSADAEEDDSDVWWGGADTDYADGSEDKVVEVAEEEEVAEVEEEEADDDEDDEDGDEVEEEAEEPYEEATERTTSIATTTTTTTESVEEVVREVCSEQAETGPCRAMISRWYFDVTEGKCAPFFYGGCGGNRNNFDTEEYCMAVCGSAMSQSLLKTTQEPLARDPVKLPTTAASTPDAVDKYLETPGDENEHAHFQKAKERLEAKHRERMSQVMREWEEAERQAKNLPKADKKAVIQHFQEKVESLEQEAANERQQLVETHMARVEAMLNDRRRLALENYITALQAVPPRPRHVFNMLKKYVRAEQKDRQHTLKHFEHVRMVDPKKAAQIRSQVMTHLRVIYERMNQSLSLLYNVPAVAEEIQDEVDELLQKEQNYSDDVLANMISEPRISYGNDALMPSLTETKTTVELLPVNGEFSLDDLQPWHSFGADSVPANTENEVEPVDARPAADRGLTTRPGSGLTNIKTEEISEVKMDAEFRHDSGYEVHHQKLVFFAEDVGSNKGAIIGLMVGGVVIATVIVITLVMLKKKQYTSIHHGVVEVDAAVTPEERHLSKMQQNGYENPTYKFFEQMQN
Acetylcholinesterase (Electrophorus electricus), sequence (O42275 24-633 limits assumed): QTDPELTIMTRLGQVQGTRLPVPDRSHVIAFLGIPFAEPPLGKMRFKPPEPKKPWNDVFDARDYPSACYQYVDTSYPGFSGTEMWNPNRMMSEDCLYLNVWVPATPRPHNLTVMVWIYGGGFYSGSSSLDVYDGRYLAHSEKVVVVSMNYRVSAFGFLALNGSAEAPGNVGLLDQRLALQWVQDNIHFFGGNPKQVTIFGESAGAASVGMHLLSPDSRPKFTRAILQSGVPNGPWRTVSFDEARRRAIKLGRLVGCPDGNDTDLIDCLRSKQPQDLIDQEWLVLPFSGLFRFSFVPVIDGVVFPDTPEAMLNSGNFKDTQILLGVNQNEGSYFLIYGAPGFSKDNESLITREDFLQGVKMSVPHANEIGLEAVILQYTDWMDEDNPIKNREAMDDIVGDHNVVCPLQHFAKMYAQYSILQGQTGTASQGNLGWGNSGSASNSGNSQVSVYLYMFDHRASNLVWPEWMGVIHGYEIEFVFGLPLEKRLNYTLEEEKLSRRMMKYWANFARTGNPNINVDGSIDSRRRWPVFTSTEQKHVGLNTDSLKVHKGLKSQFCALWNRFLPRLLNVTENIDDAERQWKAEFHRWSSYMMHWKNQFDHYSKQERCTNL
Cholinesterase, sequence (P81908 whole entry): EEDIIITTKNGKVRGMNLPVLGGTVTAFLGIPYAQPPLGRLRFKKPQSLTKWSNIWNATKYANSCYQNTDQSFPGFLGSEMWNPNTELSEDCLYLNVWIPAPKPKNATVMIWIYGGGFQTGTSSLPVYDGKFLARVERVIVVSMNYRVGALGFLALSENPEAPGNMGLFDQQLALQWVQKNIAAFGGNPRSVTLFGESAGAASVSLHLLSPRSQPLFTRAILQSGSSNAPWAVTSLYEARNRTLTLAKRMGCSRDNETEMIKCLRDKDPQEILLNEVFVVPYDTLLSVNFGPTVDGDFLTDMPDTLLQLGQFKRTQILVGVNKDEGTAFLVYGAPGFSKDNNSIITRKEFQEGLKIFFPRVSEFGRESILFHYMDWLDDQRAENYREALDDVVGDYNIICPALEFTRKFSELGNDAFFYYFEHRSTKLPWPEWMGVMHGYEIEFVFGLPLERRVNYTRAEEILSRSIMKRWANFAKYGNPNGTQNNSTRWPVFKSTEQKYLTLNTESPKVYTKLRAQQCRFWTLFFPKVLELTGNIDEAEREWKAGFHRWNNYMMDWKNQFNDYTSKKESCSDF
T4 sequence (P56817 whole entry): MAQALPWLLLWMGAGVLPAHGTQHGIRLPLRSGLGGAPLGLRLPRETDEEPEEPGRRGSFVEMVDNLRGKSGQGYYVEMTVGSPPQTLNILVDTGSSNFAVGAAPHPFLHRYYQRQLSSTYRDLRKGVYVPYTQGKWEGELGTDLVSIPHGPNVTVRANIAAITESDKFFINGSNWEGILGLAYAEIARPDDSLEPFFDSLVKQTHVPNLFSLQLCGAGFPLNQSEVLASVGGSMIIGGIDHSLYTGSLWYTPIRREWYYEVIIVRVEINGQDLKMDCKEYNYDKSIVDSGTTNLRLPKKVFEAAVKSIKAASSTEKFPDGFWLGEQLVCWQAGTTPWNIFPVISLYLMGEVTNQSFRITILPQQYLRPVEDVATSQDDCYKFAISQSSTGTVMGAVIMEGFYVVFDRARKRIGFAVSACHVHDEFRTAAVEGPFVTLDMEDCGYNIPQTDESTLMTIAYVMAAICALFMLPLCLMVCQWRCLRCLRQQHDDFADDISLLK
Cholinesterase (Equus caballus), sequence (P81908 whole entry): as the sequence (P81908 whole entry) above

| Compound | IC50 [1] [µM] | IC50 [2] [µM] | IC50 [3] [µM] | IC50 [4] [µM] | Activity [5] [%] | inhibition [6] [%] | inhibition [7] [%] | IC50 [8] [µM] | IC50 [9] [µM] | inhibition [10] [%] | inhibition [11] [%] | inhibition [12] [%] | pIC50 ([3]; hek293) | Ki [13] [µM] |
| --- | --- | --- | --- | --- | --- | --- | --- | --- | --- | --- | --- | --- | --- | --- |
| CC(=O)NCCC(C(=O)NCc1ccc(C)cc1)N(C)CCOCCN1c2ccccc2Sc2ccccc21 (stereo unspecified) | 22.9 | 14.1 | 7.94 | 12.6 | 89 | < 10 | 52 | 3.2 |  |  |  |  |  |  |
| CN(CC/C=C/c1ccccc1-c1ccccc1)C(CO)C(=O)NCc1ccc(F)cc1 (stereo unspecified) | 28.8 | 22.4 | 22.9 | 30.2 | 94 | < 10 | 52 | 0.917 |  |  |  |  |  |  |
| Cc1ccc(CNC(=O)C(CCN)N(C)CCC=C2c3ccccc3CCc3ccccc32)cc1 (stereo unspecified) |  |  |  |  |  | 15 |  | 2.35 | 4.03 |  |  |  |  |  |
| CC(=O)NCCC(C(=O)NCc1ccccc1Cl)N(C)CCOCCN1c2ccccc2Sc2ccccc21 (stereo unspecified) | 14.1 | 20.4 | 10.2 | 10.2 | 86 | < 10 | 35 | 2.79 |  |  |  |  |  |  |
| CC(=O)NCCC(C(=O)NCc1ccc(F)cc1)N(C)CCOCCN1c2ccccc2Sc2ccccc21 (stereo unspecified) | 22.9 | 24.5 | 10.7 | 18.2 | 85 | < 10 | 45 | 8.25 |  |  |  |  |  |  |
| CC(=O)NCCC(C(=O)NCc1ccc(Cl)cc1)N(C)CCOCCN1c2ccccc2Sc2ccccc21 (stereo unspecified) | 19.1 | 9.55 | 8.91 | 12.3 | 91 | < 10 | 41 | 4.7 |  |  |  |  |  |  |
| CN(CCC=C1c2ccccc2-c2ccccc21)C(CCO)C(=O)NCc1ccc(F)cc1 (stereo unspecified) |  |  |  |  |  | < 10 | 66 | 0.978 |  | 21.5 | 77.1 |  |  |  |
| CN(CCOCCN1c2ccccc2Sc2ccccc21)C(CCO)C(=O)NCc1ccccc1Cl (stereo unspecified) | 44.7 | 31.6 | 26.3 | 29.5 | 100 | < 10 | 35 | 3.55 |  |  |  |  |  |  |
| CN(CCOCCN1c2ccccc2Sc2ccccc21)C(CCO)C(=O)NCc1ccc(F)cc1 (stereo unspecified) | 26.9 | 11.5 | 11 | 13.2 | 84 | < 10 | 42 | 4.54 |  |  |  |  |  |  |
| CN(CCOCCn1c2ccccc2c2ccccc21)C(CCO)C(=O)NCc1ccccc1Cl (stereo unspecified) | 23.4 | 16.2 | 13.2 | 11.2 | 94 | < 10 | 79 | 2.65 |  |  |  |  |  |  |
| Cc1ccc(CNC(=O)C(CCO)N(C)CCOCCN2c3ccccc3Sc3ccccc32)cc1 (stereo unspecified) | 20.4 | 12.9 | 8.51 | 19.1 | 85 | < 10 | 30 | 2.48 |  |  |  |  |  |  |
| CN(CCC=C1c2ccccc2CCc2ccccc21)C(CCN)C(=O)NCc1ccc(F)cc1 (stereo unspecified) |  |  |  |  |  | 21 |  | 1.21 | 4.88 |  |  |  |  |  |
| O=C(NCCCCCCCCNc1c2c(nc3cc(Cl)ccc13)CCCC2)c1ccc2nc(-c3ccc(Cl)cc3)c3c(c2c1)NCCC3 |  |  |  |  |  |  |  |  |  | 72.1 | 80.8 |  |  |  |
| CC(=O)NCCC(C(=O)NCc1ccccc1)N(C)CCOCCN1c2ccccc2Sc2ccccc21 (stereo unspecified) | 38 | 19.1 | 11.7 | 25.1 | 82 | < 10 | 30 |  |  |  |  | 58 |  |  |
| CN(CCC=C1c2ccccc2-c2ccccc21)C(CCO)C(=O)NCc1ccc(Cl)cc1 (stereo unspecified) |  |  |  |  |  | < 10 |  |  | 17.3 |  |  | 46 |  |  |
| CN(CCC=C1c2ccccc2-c2ccccc21)C(CCO)C(=O)NCc1ccccc1 (stereo unspecified) |  |  |  |  |  | < 10 |  | 0.978 | 19.5 | 15.8 | 58.7 |  |  |  |
| CN(CCOCCn1c2ccccc2c2ccccc21)C(CCO)C(=O)NCc1ccc(F)cc1 (stereo unspecified) | 37.2 | 13.8 | 16.2 | 18.2 | 112 | < 10 | 65 | 4.83 |  |  |  |  |  |  |
| CN(CCOCCn1c2ccccc2c2ccccc21)C(CCN)C(=O)NCc1ccc(F)cc1 (stereo unspecified) | 33.9 | 20 | 17.4 | 18.2 | 82 | < 10 | 78 | 0.345 |  | 30.9 | 95.3 |  |  |  |
| CN(CC/C=C/c1ccccc1-c1ccccc1)C(CO)C(=O)NCc1ccccc1Cl (stereo unspecified) | 16.2 | 11 | 17 | 15.5 | 75 | < 10 | 51 | 2.27 |  |  |  |  |  |  |
| CN(CCOCCn1c2ccccc2c2ccccc21)C(CCO)C(=O)NCc1ccccc1 (stereo unspecified) | 38 | 26.9 | 14.8 | 17.4 | 92 | < 10 | 64 | 4.16 |  |  |  |  |  |  |
| CC(O)CC(C(=O)NCc1ccccc1)N(C)CC/C=C/c1ccccc1-c1ccccc1 (racemic; form 2) | 44.7 | 15.1 |  | 41.7 |  |  |  | 3.71 |  |  |  |  | 4.87 | 24.5 |
| CN(CCC=C1c2ccccc2CCc2ccccc21)C(CCN)C(=O)NCc1ccc(Cl)cc1 (stereo unspecified) |  |  |  |  |  | 33 |  | 2.98 | 29 |  |  |  |  |  |
| CN(CCC=C1c2ccccc2CCc2ccccc21)C(CCN)C(=O)NCc1ccccc1 (stereo unspecified) |  |  |  |  |  | 15 |  | 1.47 | 6.68 |  |  |  |  |  |
| Cc1ccc(CNC(=O)C(CCN)N(C)CCOCCN2c3ccccc3Sc3ccccc32)cc1 (stereo unspecified) | 11 | 7.76 | 7.76 | 11.5 |  | < 10 | 47 | 3.63 |  |  |  |  |  | 40.7 |
| CN(CC/C=C/c1ccccc1-c1ccccc1)C(CO)C(=O)NCc1ccccc1 (stereo unspecified) | 25.1 | 20 | 17 | 17.4 | 67 | < 10 | 42 | 0.683 |  |  |  |  |  |  |
| CN(CCC=C1c2ccccc2CCc2ccccc21)C(CCN)C(=O)NCc1ccccc1Cl (stereo unspecified) |  |  |  |  |  | 28 |  | 1.23 | 5.13 |  |  |  |  |  |
